Laboratory results as given in patent US10392368B2, “Pyrazolo and triazolo bicyclic compounds as JAK kinase inhibitors” (THERAVANCE BIOPHARMA R&D IP, LLC, priority 2017, dated 2019).
Read-outs that look alike come from different tables or passages of the source.

Key:
JAK1 = biological target: T1, JAK1 (Homo sapiens, UniProt P23458); assay: Biochemical JAK1 kinase assay (LanthaScreen); settings: for Ki: read-out: JAK 1 (pKi) (converted)
T1 construct: GST; purchased Life Technologies
Summary of the method: (§1)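 TR-FRET read-out: terbium anti-pSTAT1 (pTyr701) antibody, 2 nM, with 10 mM EDTA quench, emission ratio 520/495 nm. GST-JAK phosphorylates GFP-STAT1 peptide for 1 h at ambient temperature after 1 h compound pre-incubation. pIC50 from dose-response converted to pKi by Cheng-Prusoff.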

JAK2 = biological target: T2, JAK2 (Homo sapiens, UniProt O60674); assay: Biochemical JAK2 kinase assay (LanthaScreen); settings: for Ki: read-out: JAK 2 (pKi) (converted)
T2 construct: GST; purchased Life Technologies
T2 sequence (O60674 whole entry): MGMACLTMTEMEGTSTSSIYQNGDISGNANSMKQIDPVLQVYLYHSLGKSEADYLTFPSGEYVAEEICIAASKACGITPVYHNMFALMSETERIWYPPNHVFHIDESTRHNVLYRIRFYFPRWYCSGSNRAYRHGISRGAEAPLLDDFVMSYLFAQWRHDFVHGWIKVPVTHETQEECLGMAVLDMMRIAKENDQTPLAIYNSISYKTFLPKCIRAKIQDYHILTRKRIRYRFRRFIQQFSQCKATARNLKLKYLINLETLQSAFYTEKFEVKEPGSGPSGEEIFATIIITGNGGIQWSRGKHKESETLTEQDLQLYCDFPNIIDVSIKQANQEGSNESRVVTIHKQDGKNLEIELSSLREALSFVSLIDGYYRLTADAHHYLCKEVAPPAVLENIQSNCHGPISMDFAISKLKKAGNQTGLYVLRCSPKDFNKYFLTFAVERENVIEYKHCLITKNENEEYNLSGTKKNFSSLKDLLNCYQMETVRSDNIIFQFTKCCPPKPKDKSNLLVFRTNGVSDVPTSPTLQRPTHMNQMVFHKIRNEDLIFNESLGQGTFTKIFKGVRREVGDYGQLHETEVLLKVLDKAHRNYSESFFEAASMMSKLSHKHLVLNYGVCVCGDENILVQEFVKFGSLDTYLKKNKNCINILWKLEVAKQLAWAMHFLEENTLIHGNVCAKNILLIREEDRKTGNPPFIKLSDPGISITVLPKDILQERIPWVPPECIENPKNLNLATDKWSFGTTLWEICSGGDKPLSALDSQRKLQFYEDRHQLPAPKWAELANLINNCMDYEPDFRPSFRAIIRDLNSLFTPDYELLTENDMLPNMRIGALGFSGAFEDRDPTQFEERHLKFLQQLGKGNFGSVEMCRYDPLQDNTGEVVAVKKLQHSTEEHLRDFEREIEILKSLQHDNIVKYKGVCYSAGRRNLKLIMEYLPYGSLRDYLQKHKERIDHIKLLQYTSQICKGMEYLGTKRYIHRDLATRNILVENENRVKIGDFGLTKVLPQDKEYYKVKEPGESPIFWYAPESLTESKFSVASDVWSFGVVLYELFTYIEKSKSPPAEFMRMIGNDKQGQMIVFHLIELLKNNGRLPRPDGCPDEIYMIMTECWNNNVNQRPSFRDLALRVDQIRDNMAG
Summary of the method: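 GST-tagged recombinant JAK2 pre-incubated 1 h at ambient temperature with compound and GFP-STAT1 peptide in HEPES pH 7.5/MgCl2 buffer, then ATP added for a 1 h reaction with 1% DMSO. TR-FRET read after EDTA and Tb-anti-pSTAT1 (pTyr701) addition; IC50 from 4-parameter fit, converted to pKi by Cheng-Prusoff.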

Tyk2 = biological target: T3, Tyk2 (Homo sapiens, UniProt P29597); assay: Biochemical Tyk2 kinase assay (LanthaScreen); settings: for Ki: read-out: Tyk 2 (pKi) (converted)
T3 construct: GST; purchased Life Technologies
T3 sequence (P29597 whole entry): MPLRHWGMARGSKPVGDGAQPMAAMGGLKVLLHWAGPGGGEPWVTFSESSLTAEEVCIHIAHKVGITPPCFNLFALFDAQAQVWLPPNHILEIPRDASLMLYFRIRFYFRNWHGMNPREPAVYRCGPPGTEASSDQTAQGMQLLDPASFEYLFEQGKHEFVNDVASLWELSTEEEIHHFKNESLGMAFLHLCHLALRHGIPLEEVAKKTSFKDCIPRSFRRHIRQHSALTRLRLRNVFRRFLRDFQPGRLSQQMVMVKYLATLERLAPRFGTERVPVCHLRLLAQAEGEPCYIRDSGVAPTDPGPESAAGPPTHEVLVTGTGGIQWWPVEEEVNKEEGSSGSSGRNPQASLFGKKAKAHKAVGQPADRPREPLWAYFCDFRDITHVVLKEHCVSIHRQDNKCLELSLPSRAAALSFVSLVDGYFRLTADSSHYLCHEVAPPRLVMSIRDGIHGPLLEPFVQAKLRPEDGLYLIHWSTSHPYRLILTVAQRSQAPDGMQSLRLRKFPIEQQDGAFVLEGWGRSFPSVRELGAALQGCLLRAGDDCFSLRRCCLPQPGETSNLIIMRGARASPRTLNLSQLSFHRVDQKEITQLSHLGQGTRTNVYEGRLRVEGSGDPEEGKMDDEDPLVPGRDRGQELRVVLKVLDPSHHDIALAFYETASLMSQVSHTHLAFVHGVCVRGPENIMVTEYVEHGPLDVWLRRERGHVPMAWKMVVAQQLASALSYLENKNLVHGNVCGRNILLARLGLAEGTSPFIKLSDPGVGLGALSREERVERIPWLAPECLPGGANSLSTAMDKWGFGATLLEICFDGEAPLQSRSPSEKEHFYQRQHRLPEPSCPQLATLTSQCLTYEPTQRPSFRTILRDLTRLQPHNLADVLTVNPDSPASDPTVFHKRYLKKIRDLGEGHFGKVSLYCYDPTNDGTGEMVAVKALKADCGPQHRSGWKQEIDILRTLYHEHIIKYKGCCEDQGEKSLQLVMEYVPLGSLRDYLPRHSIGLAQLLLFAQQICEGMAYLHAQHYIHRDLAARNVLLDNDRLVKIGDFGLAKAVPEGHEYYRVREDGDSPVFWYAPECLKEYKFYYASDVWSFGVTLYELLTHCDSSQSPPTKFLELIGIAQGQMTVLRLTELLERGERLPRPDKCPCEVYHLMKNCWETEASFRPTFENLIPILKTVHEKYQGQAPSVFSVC
Summary of the method: as §1

[1] = tested on: IL-2 stimulated pSTAT5 in Tall-1 T cells; assay: Cellular JAK3 potency assay: inhibition of IL-2 stimulated pSTAT5 in Tall-1 T cells; assay type: cell-based, human; settings: for Tall-1 (pIC50): IL-2 stimulated pSTAT5 in Tall-1 T cells; for IC50: Homo sapiens, read-out: Tall-1 (pIC50) (converted)
Summary of the method: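 Tall-1 human T cells (45,000/well) in phenol red-free DMEM with 10% FBS were preincubated with compound 1 h at 37 °C, then stimulated with IL-2 (final 300 ng/ml) for 30 min. Lysate pSTAT5 read by AlphaLisa; IC50 from inhibition curves, reported as pIC50 (mean±SD).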

[2] = tested on: oxazolone-induced colitis; assay: Mouse model of oxazolone-induced colitis; assay type: in vivo
Method: Oxazolone-induced colitis is an experimental model that has a histological resemblance to human ulcerative colitis (Heller et al. Immunology, 2002, 17, 629-638). Adult BALB/C mice from Harlan were used in the assay. On day 1, animals were lightly anesthetized with isoflurane and the hairs between the shoulder were carefully removed before oxazolone (4%, 150 μL, 4:1 acetone:olive oil formulation) or vehicle solution was slowly applied for skin sensitization. Seven days after skin sensitization, the mice were fasted around 6 hours prior, anesthetized with ketamine/xylazine injection, and a 1 mL syringe equipped with a 3.5-F catheter, filled with oxazolone solution, was inserted carefully about 4 cm into the colon of the mouse. Following insertion, 50 μL of the oxazolone solution (0.8% in 1:1 ethanol:water formulation) was injected very slowly (over 30 sec using an injection pump) into the colon. Drug treatment (PO, QD or BID or TID) or vehicle was initiated a day prior to the oxazolone intrarectal (IR) challenge. Two-day post oxazolone intrarectal challenge, the disease was assessed by treatment-blinded experimenters for each mouse according to the criteria score: stool consistency score (0, normal; 2, loose; 4, diarrhea), gross bleeding score (0, absence; 2, blood tinged; 4, presence); Combined stool score endpoint=stool consistency score+stool blood score.
Select compounds were tested in the assay.

JAK3 = biological target: T4, JAK3 (Homo sapiens, UniProt P52333); assay: Biochemical JAK3 kinase assay (LanthaScreen); set-up: GST; purchased Life Technologies; settings: for Ki: read-out: JAK 3 (pKi) (converted)
T4 sequence (P52333 1-1124): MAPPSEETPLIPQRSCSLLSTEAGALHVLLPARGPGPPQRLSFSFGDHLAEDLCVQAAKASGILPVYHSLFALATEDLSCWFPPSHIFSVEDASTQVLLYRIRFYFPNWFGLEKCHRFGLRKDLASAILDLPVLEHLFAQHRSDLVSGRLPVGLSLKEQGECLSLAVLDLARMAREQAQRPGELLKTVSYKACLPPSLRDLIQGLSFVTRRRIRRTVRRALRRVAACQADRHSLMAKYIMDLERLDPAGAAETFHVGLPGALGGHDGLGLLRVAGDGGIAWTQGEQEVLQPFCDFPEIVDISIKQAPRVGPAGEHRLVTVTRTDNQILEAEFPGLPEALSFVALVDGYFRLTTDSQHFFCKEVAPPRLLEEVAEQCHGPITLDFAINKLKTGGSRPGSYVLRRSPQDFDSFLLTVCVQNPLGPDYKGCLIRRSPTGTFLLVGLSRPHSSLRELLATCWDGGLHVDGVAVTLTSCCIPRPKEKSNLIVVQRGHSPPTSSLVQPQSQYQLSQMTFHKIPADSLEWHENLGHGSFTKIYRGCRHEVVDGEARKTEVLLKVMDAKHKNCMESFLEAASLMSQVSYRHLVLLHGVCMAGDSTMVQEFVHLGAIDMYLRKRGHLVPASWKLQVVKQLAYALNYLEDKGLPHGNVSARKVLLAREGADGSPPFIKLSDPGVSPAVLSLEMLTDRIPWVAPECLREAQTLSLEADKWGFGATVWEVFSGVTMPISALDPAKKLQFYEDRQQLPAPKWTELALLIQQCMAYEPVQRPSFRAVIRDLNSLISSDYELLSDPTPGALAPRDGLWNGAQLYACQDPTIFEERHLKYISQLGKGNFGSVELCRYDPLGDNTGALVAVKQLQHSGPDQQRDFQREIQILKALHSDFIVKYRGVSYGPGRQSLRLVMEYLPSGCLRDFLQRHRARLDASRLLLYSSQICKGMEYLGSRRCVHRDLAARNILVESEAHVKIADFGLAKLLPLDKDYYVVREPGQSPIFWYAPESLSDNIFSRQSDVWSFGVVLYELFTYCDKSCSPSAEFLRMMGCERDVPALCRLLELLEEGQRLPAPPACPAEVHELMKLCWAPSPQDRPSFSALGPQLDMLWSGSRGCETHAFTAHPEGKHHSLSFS
Summary of the method: as §1

[3] = selectivity: difference of pKi JAK3 and pKi JAK1
[4] = TALL-1, IL-2 stimulated pSTAT5 in Tall-1 T cells
[5] = TALL-1, IL-2 stimulated pSTAT5, Tall-1 T cells
[6] = selectivity JAK3 over JAK1, difference of pKi

T1 sequence (P23458 whole entry): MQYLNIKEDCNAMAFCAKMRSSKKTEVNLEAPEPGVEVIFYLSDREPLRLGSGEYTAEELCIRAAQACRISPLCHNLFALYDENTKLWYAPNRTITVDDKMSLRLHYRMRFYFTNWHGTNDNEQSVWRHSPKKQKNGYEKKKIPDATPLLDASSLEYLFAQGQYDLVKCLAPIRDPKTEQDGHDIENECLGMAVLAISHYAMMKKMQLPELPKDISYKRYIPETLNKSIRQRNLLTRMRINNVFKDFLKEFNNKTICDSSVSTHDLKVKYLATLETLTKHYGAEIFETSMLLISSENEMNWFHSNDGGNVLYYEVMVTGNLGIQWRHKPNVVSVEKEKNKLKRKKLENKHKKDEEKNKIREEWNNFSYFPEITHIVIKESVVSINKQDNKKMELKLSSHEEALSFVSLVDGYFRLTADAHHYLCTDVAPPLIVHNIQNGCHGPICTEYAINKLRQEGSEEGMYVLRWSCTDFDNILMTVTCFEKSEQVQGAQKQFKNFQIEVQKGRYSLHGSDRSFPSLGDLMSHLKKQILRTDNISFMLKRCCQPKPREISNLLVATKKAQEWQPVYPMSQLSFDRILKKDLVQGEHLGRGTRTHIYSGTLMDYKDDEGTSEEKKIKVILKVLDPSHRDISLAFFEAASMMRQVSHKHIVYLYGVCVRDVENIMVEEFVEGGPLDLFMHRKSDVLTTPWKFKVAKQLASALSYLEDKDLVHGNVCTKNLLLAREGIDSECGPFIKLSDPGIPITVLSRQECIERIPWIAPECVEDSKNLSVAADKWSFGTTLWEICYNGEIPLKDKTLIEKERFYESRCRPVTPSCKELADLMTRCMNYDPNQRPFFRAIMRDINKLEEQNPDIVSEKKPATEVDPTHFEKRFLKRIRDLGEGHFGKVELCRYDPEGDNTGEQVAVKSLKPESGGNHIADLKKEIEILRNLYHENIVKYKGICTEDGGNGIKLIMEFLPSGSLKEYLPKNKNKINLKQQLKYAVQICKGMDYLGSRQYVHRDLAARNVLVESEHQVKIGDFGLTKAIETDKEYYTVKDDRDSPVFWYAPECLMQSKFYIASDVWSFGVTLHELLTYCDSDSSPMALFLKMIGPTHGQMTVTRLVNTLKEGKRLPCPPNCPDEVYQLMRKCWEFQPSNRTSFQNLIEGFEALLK

Compound	JAK 1 (pKi) (JAK1)	JAK 2 (pKi) (JAK2)	Tyk 2 (pKi) (Tyk2)	Tall-1 (pIC50) [1]	combined stool score endpoint as compared with vehicle treated animals ([2]; 3 mg/kg (PO, BID))	JAK 3 (pKi) (JAK3)	JAK3 (pKi)-JAK1 (pKi) (JAK3; [3])	Ki (JAK1)	Ki (JAK2)	Ki (Tyk2)	IC50 [1, 4]	Ki (JAK3)	combined stool score endpoint as compared with vehicle treated animals ([2]; 1 and 10 mg/kg only (PO, BID))	IC50 [1, 5]	JAK3 (pKi)-JAK1 (pKi) (JAK3; [6])
CN(C)C/C=C/C(=O)N1CC(C)(COc2cc(-c3ccc(O)c(F)c3)cc3[nH]ncc23)C1 [Compound 3-11]	E (a pKi value of 7 or below (Ki of 100 nM or above))	D (a pKi value between 7 and 8 (Ki between 100 nM and 10 nM))	E (a pKi value of 7 or below (Ki of 100 nM or above))	B (a pIC50 value between 6.7 (included) and 7.5 (IC50 between 200 nM and 32 nM))	statistically significant decrease	A (a pKi value≥10 (Ki≤0.1 nM))	A (a value of 3 or above)								
CN(C)C/C=C/C(=O)N1CC(COc2nc(-c3ccc(O)c(Cl)c3)cc3[nH]ncc23)C1 [Compound 3-34]	E (a pKi value of 7 or below (Ki of 100 nM or above))	E (a pKi value of 7 or below (Ki of 100 nM or above))	E (a pKi value of 7 or below (Ki of 100 nM or above))	B (a pIC50 value between 6.7 (included) and 7.5 (IC50 between 200 nM and 32 nM))	statistically significant decrease	A (a pKi value≥10 (Ki≤0.1 nM))	A (a value of 3 or above)								
CN(C)C/C=C/C(=O)N1CC(C)(COc2nc(-c3ccc(O)cc3)cc3[nH]ncc23)C1 [Compound 3-55]	E (a pKi value of 7 or below (Ki of 100 nM or above))	E (a pKi value of 7 or below (Ki of 100 nM or above))	E (a pKi value of 7 or below (Ki of 100 nM or above))	B (a pIC50 value between 6.7 (included) and 7.5 (IC50 between 200 nM and 32 nM))	statistically significant decrease	A (a pKi value≥10 (Ki≤0.1 nM))	A (a value of 3 or above)								
C=CC(=O)N1CC(C)(COc2nc(-c3ccc(O)cc3)nc3[nH]ncc23)C1 [Compound 3-57]	E (a pKi value of 7 or below (Ki of 100 nM or above))	E (a pKi value of 7 or below (Ki of 100 nM or above))	E (a pKi value of 7 or below (Ki of 100 nM or above))	B (a pIC50 value between 6.7 (included) and 7.5 (IC50 between 200 nM and 32 nM))	statistically significant decrease	A (a pKi value≥10 (Ki≤0.1 nM))	A (a value of 3 or above)								
COC1(COc2cc(-c3ccc(O)c(Cl)c3)cc3[nH]ncc23)CN(C(=O)/C=C/CN(C)C)C1 [Compound 3-72]					statistically significant decrease		A (a value of 3 or above)	> 100 nM	> 100 nM	> 100 nM	< 31.6 nM	0.1 to 1 nM			
COC1(COc2cc(-c3ccc(O)c(F)c3)cc3[nH]ncc23)CN(C(=O)/C=C/CN(C)C)C1 [Compound 3-74]							A (a value of 3 or above)	> 100 nM	> 100 nM	> 100 nM	< 31.6 nM	< 0.1 nM	statistically significant decrease		
C=CC(=O)N1CC(C(C)(C)Oc2cc(-c3ccc(O)c(Cl)c3)nc3[nH]ncc23)C1 [Compound 3-80]	E (a pKi value of 7 or below (Ki of 100 nM or above))	E (a pKi value of 7 or below (Ki of 100 nM or above))	E (a pKi value of 7 or below (Ki of 100 nM or above))	B (a pIC50 value between 6.7 (included) and 7.5 (IC50 between 200 nM and 32 nM))	statistically significant decrease	A (a pKi value≥10 (Ki≤0.1 nM))	A (a value of 3 or above)								
CN(C)C/C=C/C(=O)N1CC(Oc2cc(-c3ccc(O)cc3)cc3[nH]ncc23)(C(F)F)C1 [Compound 5-10]	E (a pKi value of 7 or below (Ki of 100 nM or above))			B (a pIC50 value between 6.7 (included) and 7.5 (IC50 between 200 nM and 32 nM))	statistically significant decrease	B (a pKi value between 9 and 10 (Ki between 1 nM and 0.1 nM))	A (a value of 3 or above)								
C=CC(=O)N1CC(COc2cc(-c3ccc(O)cc3)cc3[nH]nc(SC)c23)C1 [Compound 18-10]								> 100 nM	10 to 100 nM	> 100 nM		< 0.1 nM		31.6 to 200 nM	A (a value of 3 or above)
CN(C)C/C=C/C(=O)N1CC(COc2cc(-c3ccc(O)cc3)cc3[nH]nc(C(F)(F)F)c23)C1 [Compound 18-12]								10 to 100 nM	10 to 100 nM	> 100 nM		0.1 to 1 nM		31.6 to 200 nM	B (a value of 2.3 to 3)
C=CC(=O)N1CC(COc2cc(-c3ccc(O)cc3)cc3[nH]nc(C(F)(F)F)c23)C1 [Compound 18-13]								> 100 nM	10 to 100 nM	> 100 nM		< 0.1 nM		< 31.6 nM	A (a value of 3 or above)
C=CC(=O)N1CC[C@H](COc2cc(-c3ccc(O)cc3)cc3[nH]nnc23)C1 [Compound 23, (S)-1-(3-(((6-(4-hydroxyphenyl)-1H-benzo[d][1,2,3]triazol-4-yl)oxy)methyl)pyrrolidin-1-yl)prop-2-en-1-one]							A (a value of 3 or above)	> 100 nM	10 to 100 nM	> 100 nM	31.6 to 200 nM	< 0.1 nM			
C=CC(=O)N1CC[C@H](Oc2cc(-c3ccc(O)c(Cl)c3)cc3[nH]nc(C)c23)C1 [Compound 24, (S)-1-(3-((6-(3-chloro-4-hydroxyphenyl)-3-methyl-1H-indazol-4-yl)oxy)pyrrolidin-1-yl)prop-2-en-1-one]							A (a value of 3 or above)	> 100 nM	> 100 nM	> 100 nM	< 31.6 nM	0.1 to 1 nM			
